Patent publication US5807900A, “Method for identifying compounds having increased activity for the repair of skin photodamage” (priority 1995, dated 1998)
Where two headings read alike, the source gives them in different places.

Legend:
human RAR-α [1] = assay: RAR-α transactivation assay (SeAP reporter, COS cells); format: cell-based; details: for Transactivation % max (α): relative to all-trans-retinoic acid at same concentration (1,000 nM or 10,000 nM)
Method: (§1) Retinoid Receptor Transactivation Assays
(§2) Transactivation assays were performed essentially as described in Apfel et al., supra. For the RAR transcription activation test system, the secreted alkaline phosphatase gene (SeAP) is used as reporter. To have a screening system specific for the transfected receptor, chimeric receptors are used. These contain an estrogen receptor DNA binding domain and therefore recognize the estrogen response element (ERE) which no endogenous RAR's in mammalian cells will recognize.
(§3) The transactivation assay system has been adapted to 96-well plates and most steps are done by a robot. Briefly, on day 1 confluent COS cells are subcultured at an equivalent density onto 96-well plates in DMEM+10% charcoal stripped serum. On day 2 DNA is prepared for transfection by mixing the following: 10 μg vit-TK-SeAP reporter plasmid, 2 μg RAR expression plasmid, 2 μg transfection control plasmid and 30 μl Transfectam (lipopolyamine transfection reagent). Cells are washed twice with serum-free medium and DNA/transfectam mix added. After 1 hour medium is removed and replaced with growth medium containing test retinoids. On day 4 or 5 the culture supernatant is removed, heated to 65° for 5 min to inactivate nonspecific phosphatases, and diluted 1:10 with water. 20 μl samples are added to 100 μl of phosphatase substrate in buffer. After 1 hour at 37° the luminescence is measured in a 96-well luminometer.
(§4) 100 μl of β-galactosidase substrate is added to the adherent cells. Plates are incubated for 1 hour at 37° and the supernatants transferred to separate plates for quantitation of β-galactosidase activity by luminescence measurement. Transactivation results are expressed as the ratio of SeAP/β-galactosidase activity for each well to correct for well-to-well variation in transfection efficiency.
(§5) Data are means of values obtained from two or more individual experiments, rounded off to two significant figures. […] The maximum transactivation activity is determined from the plot where increasing dosage provides little or no additional activity, i.e., where the plot begins to level off. For active retinoids the highest concentration tested is 1000 nM.

RAR-β = RAR-β transactivation assay (SeAP reporter, COS cells); format: cell-based, human; details: for Transactivation % max (β): relative to all-trans-retinoic acid at same concentration (1,000 nM or 10,000 nM)
Method: as §1, §2, §3, §4, §5

human RAR-γ [2] = assay: RAR-γ transactivation assay (SeAP reporter, COS cells); format: cell-based; details: for Transactivation % max (γ): relative to all-trans-retinoic acid at same concentration (1,000 nM or 10,000 nM)
Method: as §1, §2, §3, §4, §5

photodamaged skin = assay: Measurement of photodamage repair in the hairless mouse model; format: in vivo, Hairless mice (female, HRS/J strain); details: for Photodamage repair activity (scale 0 to 4): UVB-irradiated, topical in acetone three times per week, three doses
Source text: The ability of a composition of the invention to induce repair of photodamaged skin may be determined by any conventional means. One conventional method of determining the ability of a topical composition to repair photodamaged skin is the hairless mouse model described by Kligman et al., supra. […] In this model, repair is defined by the appearance of a zone of normalized dermis extending from the epidermis down to the layer of compressed elastin. The extent of repair is reflected by the width of this zone. […] The average width of the repair zone is then calculated by dividing the area by the length of the histological section that was measured.
The width of the repair zone is […] an activity value of 4.
Measurement of Photodamage Repair
Hairless mice (female, HRS/J strain, Jackson Labs, 5-7 weeks old at the start of the experiments) were housed in yellow light and irradiated three times per week with a bank of 8 Westinghouse Sunlamps (FS120) placed about 20 cm above the animals. Daily doses were 0.03 J/cm^2 for two weeks, 0.06 J/cm2 for two weeks and 0.08 J/cm2 thereafter. The radiation dose is controlled by an International Light Model IL844A Phototherapy Exposure Control and a model SEE240 detector.
To effect repair of the dermal damage, the UVB irradiation was discontinued and the animals were divided into groups of approximately eight and treated three times per week with various concentrations of the retinoids dissolved in acetone. Stock solutions are made up freshly every week in subdued light at concentrations such that the dose is delivered in 100 μl volume and applied topically with a plastic pipette to an area of about 10 cm^2 on the back of the animal. All dosing was done under yellow light. A control group treated with acetone alone was included.
Two-cm strips of dorsal skin were taken longitudinally down the center of the irradiated (and treated) area. Elastin fibers were stained with Luna's aldehyde fuchsin and collagen by Van Gieson. In this model, repair is defined by the appearance of a normalized dermis extending from the epidermis down to the layer of compressed elastin. The extent of repair is reflected by the width of this zone. […] Twenty-four fields each of which, at 100X magnification, represents a section of tissue 0.57 mm long, are examined and the area calculated. The results are reported as the average area per field in mm^2. Thus the average width of the repair zone can be obtained by dividing this average area by 0.57 mm. […] All microscopic fields are included in the calculations of average area (or width). Data are analyzed by Student's t-test.
Compounds are tested at three doses and an approximate ED50 calculated.

photoaged skin = details: human, topical, literature studies; cited from earlier work
human RAR-α [3] = target: T1, human RAR-α (Homo sapiens, UniProt P10276); assay: Binding assay for human RAR-α (displacement of 3H-retinoic acid); details: 3H-retinoic acid displacement, mean of two or more experiments
T1 sequence (P10276 201-462 limits assumed): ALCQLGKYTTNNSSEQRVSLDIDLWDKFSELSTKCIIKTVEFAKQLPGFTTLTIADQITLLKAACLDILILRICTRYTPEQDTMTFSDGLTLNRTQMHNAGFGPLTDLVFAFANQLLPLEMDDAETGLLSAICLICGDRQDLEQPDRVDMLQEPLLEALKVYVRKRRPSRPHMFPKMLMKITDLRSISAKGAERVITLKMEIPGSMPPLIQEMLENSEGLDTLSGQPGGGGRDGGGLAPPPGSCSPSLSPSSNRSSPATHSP

human RAR-β = target: T2, human RAR-β (Homo sapiens, UniProt P10826); assay: Binding assay for human RAR-β (displacement of 3H-retinoic acid); details: 3H-retinoic acid displacement, mean of two or more experiments
T2 sequence (P10826 201-455 limits assumed): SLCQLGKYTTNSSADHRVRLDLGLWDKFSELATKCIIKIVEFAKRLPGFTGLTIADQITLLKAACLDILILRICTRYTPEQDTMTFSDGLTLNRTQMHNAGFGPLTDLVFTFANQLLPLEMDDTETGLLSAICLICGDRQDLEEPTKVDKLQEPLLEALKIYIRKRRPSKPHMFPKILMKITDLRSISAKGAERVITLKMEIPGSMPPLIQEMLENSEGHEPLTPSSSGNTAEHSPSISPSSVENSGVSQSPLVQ
Method: (§6) Binding Assay for Human RAR-α, RAR-β and RAR-γ
(§7) Binding assays were performed essentially as described in Apfel et al., supra. […] Extracts containing the receptors were used in a competitive binding assay which depends upon the ability of increasing concentrations of a retinoid to displace ^3 H-retinoic acid. In a typical assay, 0.2 to 0.4 picomoles of receptors were incubated in 0.2 ml of 50 mM Tris HCl, pH 7.4, 50 mM NaCl, 2 mM EDTA (binding buffer) containing 0.5% gelatin, 1% DMSO, 2-5 nM ^3 H-retinoic acid and various concentrations of unlabelled retinoids. After 3-5 hours at 22° C., 0.15 ml of chilled charcoal/dextran suspension (5% Norit A/0.5% dextran T-40 in binding buffer) were added for 15 min at 4° C. The tubes were centrifuged at 12,000 x g for 15 minutes and the supernates counted. Binding parameters were calculated from competition curves using the Ligand program.
(§8) Data are means of values obtained from two or more individual experiments, rounded off to two significant figures. […] When binding inhibition at 10,000 nM is less than 50%, >10,000 is indicated.

human RAR-γ [4] = assay: Binding assay for human RAR-γ (displacement of 3H-retinoic acid); details: 3H-retinoic acid displacement, mean of two or more experiments
Method: as §6, §7, §8

[5] = COS cells, 50% of the compound's own maximum, set to highest concentration tested (usually 1000 nM) if no maximum reached, read-out: Transactivation ED50 (α)
[6] = COS cells, 50% of the compound's own maximum, set to highest concentration tested (usually 1000 nM) if no maximum reached, read-out: Transactivation ED50 (β)
[7] = RAR-γ, COS cells, 50% of the compound's own maximum, set to highest concentration tested (usually 1000 nM) if no maximum reached, read-out: Transactivation ED50 (γ)

Compound	EC50 (human RAR-α [1]; read-out: Transactivation ED50 (α), COS cells, 50% of the compound's own maximum, set to highest concentration tested (usually 1000 nM) if no maximum reached)	Transactivation % max (α) (human RAR-α [1])	EC50 (RAR-β; read-out: Transactivation ED50 (β), COS cells, 50% of the compound's own maximum, set to highest concentration tested (usually 1000 nM) if no maximum reached)	Transactivation % max (β) (RAR-β)	EC50 (human RAR-γ [2])	Transactivation % max (γ) (human RAR-γ [2]; RAR-γ)	Photodamage repair activity (scale 0 to 4) (photodamaged skin)	ED50 for photodamage repair (photodamaged skin; μg of test compound applied to 10 cm^2 of skin area, standard retinoid)	Clinical improvement of photodamaged/photoaged skin (photoaged skin)	IC50 (human RAR-α [3])	IC50 (human RAR-β)	IC50 (human RAR-γ [4])	EC50 (human RAR-α [1]; [5])	EC50 (RAR-β; [6])	EC50 (human RAR-γ [2]; [7])
CC1=C(/C=C/C(C)=C/C=C/C(C)=C\C(=O)O)C(C)(C)CCC1 [B, 13-cis retinoic acid, reference compound]	[…]	[…]	[…]	[…]	[…]	[…]	2 (an ED50 of 10 μg)	10 µg	efficacy of isotretinoin in photodamage has been demonstrated						
CCS(=O)(=O)c1ccc(/C=C(\C)c2ccc3c(c2)C(C)(C)CCC3(C)C)cc1 [I]		10%		21%		21%	3 (an ED50 of 1 μg or less (highly active))			> 10000 nM	> 10000 nM	> 10000 nM	1000 nM	1000 nM	1000 nM
C/C(=C\c1ccccc1)c1ccc2c(c1)C(C)(C)CCC2(C)C [H]		12%		10%		19%	0			> 10000 nM	> 10000 nM	> 10000 nM	1000 nM	1000 nM	1000 nM
